The results in this text go back to patent publication US7955425B2, “Ink composition for ink jet recording” (Seiko Epson Corporation, priority 2008, dated 2011).

The nature of series [1]: Surface tension of aqueous solution. It is filed as physicochemical.
A short description of series [2]: Evaluation of solubility of poorly water-soluble alkane diol. The note with it: for Ability to dissolve 1,2-octanediol: two-component aqueous alcohol solution with 10% by weight 1,2-octanediol and 10% by weight 1,2-hexanediol, FIG. 1. It counts as physicochemical. The procedure:
An aqueous solution containing 10% by weight of 1,2-octanediol was prepared using 1,2-octanediol as a poorly water-soluble alkane diol.
Five alcohol solvents, 1,6-hexanediol (hereinafter referred to as 1,6-HED), 3-methyl-1,5-pentanediol (hereinafter referred to as 3 MPED), 1,5-pentanediol (hereinafter referred to as 1,5-PED), 1,2-hexanediol (hereinafter referred to as HED), and 2,2′-dimethylpropanediol (hereinafter referred to as 2 MPRD) were added to 10 g of the aqueous solution until the aqueous solution became transparent.
In place of the aqueous solution described above, an aqueous solution that contains 10% by weight of 1,2-octanediol as the poorly water-soluble alkane diol and 10% by weight of 1,2-hexanediol as the water-soluble 1,2-alkane diol was prepared, and the alcohol solvents were added to the aqueous solution until the aqueous solution became transparent, as described above.

On to `CCCCC(O)CO` (stereo not shown) [1,2-hexanediol], for which the surface tension in series [1] (15% aqueous solution) was found to be 26.7 mN/m.

The molecule `CC(C)(C)C(O)CO` (stereo not shown) [3,3-dimethyl-1,2-butanediol] had a surface tension in series [1] (15% aqueous solution) of 26.1 mN/m. For `CC(C)(CO)CO` [2 MPRD, 2,2′-dimethylpropanediol], the “Ability to dissolve 1,2-octanediol” value in series [2] is reported as “higher ability to dissolve 1,2-octanediol than the addition of HED alone”.

Turning to `OCCCCCO` [1,5-PED, 1,5-pentanediol], the “Ability to dissolve 1,2-octanediol” value in series [2] is given as “higher ability to dissolve 1,2-octanediol than the addition of HED alone”.

In series [1] (15% aqueous solution), `CC(C)CC(O)CO` (stereo not shown) [4-methyl 1,2-pentanediol] displayed a surface tension of 25.4 mN/m. Take `CC(CO)CO` [2-methyl-1,3-propanediol]: in series [1] (10% aqueous solution), the surface tension stood at 57.5 mN/m.

For the molecule `CC(CCO)CCO` [3-methyl-1,5-butanediol], the surface tension in series [1] (10% aqueous solution) is on record as 45.8 mN/m.

For `CCCCCCC(O)CO` (stereo not shown) [1,2-octanediol], the “Solubility of 1,2-octanediol in water” value in series [2] (aqueous solution containing 10% by weight of 1,2-octanediol) was “incompletely dissolved”.

In the case of `CC(CCO)CCO` [3 MPED, 3-methyl-1,5-pentanediol], the “Ability to dissolve 1,2-octanediol” value in series [2] was “higher ability to dissolve 1,2-octanediol than the addition of HED alone”.

Regarding `OCCCCCCO` [1,6-HED, 1,6-hexanediol], the “Ability to dissolve 1,2-octanediol” value in series [2] is “higher ability to dissolve 1,2-octanediol than the addition of HED alone”.

The surface tension is the force per length acting along the surface.
